In this assay the target is human ACC2 (Homo sapiens (Human), UniProt O00763). Description: ACC2 assay (spectrophotometric 384 well assay, NADH-linked kinetic method). Conditions: hACC2 construct lacking 128 N-terminal amino acids; coupled lactate dehydrogenase/pyruvate kinase reaction, 340 nm, 25° C. The assay is classed as biochemical. In outline: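 Baculovirus/insect-cell human ACC2, anion-exchange purified; ADP formation coupled to pyruvate kinase/lactate dehydrogenase, NADH loss followed at 340 nm, 25° C, 15 min. Final 200 μM NADH and acetyl-CoA, 500 uM ATP; vehicle and no-acetyl-CoA wells set 100% and 0%.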
Chain of human ACC2 (O00763 129-2458): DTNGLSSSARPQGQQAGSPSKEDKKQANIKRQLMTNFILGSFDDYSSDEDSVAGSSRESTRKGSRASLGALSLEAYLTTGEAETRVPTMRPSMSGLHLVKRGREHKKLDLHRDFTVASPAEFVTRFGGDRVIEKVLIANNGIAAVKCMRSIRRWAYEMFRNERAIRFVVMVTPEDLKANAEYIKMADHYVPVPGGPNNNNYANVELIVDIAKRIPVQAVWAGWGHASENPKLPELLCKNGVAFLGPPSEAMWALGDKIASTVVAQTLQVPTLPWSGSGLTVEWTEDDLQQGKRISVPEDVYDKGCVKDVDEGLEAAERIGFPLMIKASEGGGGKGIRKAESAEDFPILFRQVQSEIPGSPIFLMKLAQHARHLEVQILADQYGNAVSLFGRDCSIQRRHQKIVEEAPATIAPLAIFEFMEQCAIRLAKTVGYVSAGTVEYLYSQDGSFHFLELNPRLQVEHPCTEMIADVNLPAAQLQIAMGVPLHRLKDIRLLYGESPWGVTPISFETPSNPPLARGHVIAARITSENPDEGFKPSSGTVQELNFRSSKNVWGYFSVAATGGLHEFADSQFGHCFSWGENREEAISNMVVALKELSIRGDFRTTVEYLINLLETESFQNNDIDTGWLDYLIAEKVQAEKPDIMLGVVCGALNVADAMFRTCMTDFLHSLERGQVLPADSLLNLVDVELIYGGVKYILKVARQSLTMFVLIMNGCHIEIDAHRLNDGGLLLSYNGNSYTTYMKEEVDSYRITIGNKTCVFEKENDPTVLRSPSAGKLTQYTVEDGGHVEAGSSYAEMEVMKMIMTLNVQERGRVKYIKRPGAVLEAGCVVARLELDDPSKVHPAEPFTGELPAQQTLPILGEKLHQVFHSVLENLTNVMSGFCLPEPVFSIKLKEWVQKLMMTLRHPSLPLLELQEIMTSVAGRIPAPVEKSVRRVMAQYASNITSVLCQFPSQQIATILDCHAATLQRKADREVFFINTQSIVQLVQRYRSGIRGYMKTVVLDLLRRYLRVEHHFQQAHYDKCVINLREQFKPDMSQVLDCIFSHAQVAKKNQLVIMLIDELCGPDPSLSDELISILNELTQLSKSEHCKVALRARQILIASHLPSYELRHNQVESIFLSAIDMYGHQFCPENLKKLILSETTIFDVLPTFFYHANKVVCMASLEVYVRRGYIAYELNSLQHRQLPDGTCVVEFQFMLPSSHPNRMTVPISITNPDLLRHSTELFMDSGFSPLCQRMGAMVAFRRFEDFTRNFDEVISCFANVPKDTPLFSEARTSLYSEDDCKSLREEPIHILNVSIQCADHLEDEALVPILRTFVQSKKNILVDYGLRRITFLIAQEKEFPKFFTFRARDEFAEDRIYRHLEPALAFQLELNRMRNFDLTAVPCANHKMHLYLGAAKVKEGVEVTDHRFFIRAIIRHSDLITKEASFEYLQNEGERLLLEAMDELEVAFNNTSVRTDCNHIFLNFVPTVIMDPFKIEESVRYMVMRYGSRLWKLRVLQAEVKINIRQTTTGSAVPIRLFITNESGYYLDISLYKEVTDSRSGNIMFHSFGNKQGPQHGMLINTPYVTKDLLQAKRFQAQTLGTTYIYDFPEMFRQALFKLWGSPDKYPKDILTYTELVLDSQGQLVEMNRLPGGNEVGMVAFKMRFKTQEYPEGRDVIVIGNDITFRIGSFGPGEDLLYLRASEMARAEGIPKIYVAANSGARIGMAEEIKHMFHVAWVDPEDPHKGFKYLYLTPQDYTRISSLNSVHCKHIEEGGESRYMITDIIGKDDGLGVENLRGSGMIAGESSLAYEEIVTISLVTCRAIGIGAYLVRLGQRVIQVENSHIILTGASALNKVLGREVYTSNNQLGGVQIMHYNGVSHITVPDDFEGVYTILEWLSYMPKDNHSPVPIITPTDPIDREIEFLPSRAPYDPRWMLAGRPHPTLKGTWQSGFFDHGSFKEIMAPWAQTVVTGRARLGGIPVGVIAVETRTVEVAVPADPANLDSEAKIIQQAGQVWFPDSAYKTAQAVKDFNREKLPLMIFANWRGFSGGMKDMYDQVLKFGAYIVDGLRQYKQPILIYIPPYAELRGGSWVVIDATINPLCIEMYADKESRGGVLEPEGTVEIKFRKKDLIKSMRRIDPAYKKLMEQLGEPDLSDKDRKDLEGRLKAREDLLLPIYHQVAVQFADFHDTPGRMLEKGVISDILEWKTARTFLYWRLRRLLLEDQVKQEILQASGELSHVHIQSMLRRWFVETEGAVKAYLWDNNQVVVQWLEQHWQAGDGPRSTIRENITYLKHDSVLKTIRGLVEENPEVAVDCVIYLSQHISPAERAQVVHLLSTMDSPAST

On to `CC(=O)N[C@@H](C)c1ccc(O[C@@H]2CCN(c3ccnc(N(CCC#N)C4CCCC4)n3)C2)cc1` [Example 8.108], for which inhibition was half-maximal at 375 nM (IC50).
With `CC(=O)N[C@@H](C)c1ccc(O[C@@H]2CCN(c3ncnc(N(C)CCC#N)c3F)C2)cc1` [Example 8.137] the figure was 672 nM.
Turning to `CC(=O)N[C@@H](C)c1ccc(O[C@@H]2CCN(c3ncnc(OC4CCC4)c3Cl)C2)cc1` [Example 7.41], the IC50 (commonly the midpoint of a concentration-inhibition curve) stood at 39 nM.
With `C[C@H](NC(=O)c1cncs1)c1ccc(O[C@@H]2CCN(c3nc(N(C)C)ncc3F)C2)cc1` [Example 8.99] the figure was 120 nM.
The figure for `CC(=O)N[C@@H](C)c1ccc(O[C@@H]2CCN(c3cc(OCC(F)(F)F)ncn3)C2)cc1` [Example 7.9] is 879 nM; for `CC(=O)N[C@@H](C)c1ccc(O[C@@H]2CCN(c3ccnc(N4CCC(C)(O)C4)n3)C2)cc1` (stereo partly shown) [Example 8.214] it is 865 nM.
The figure for `COC(CN(C)c1nccc(N2CC[C@@H](Oc3ccc([C@H](C)NC(C)=O)cc3)C2)n1)OC` [Example 8.42] is 632 nM; for `CC(=O)N[C@@H](C)c1ccc(O[C@@H]2CCN(c3nc(N(C)CC(F)F)ncc3Cl)C2)cc1` [Example 8.136] it is 70 nM; for `CCCNc1ncnc(N2CC[C@@H](Oc3ccc([C@H](C)NC(=O)c4sc(NC(=O)CC)nc4C)cc3)C2)c1F` [Example 8.318] it is 703 nM.
On to `COC[C@@H](C)N(C)c1ncc(F)c(N2CC[C@@H](Oc3ccc([C@H](C)NC(C)=O)cc3)C2)n1` [Example 8.150], for which the IC50 came to 159 nM.
The figure for `CC(=O)N[C@@H](C)c1ccc(O[C@@H]2CCN(c3nccc(C(F)(F)F)n3)C2)cc1` [Example 6.23] is 1730 nM; for `CCCOc1cc(N2CC[C@@H](Oc3ccc([C@H](C)NC(C)=O)cc3)C2)ncn1` [Example 7.2] it is 649 nM; for `CCCOc1ncnc(N2CC[C@@H](Oc3ccc([C@H](C)NC(C)=O)cc3)C2)c1Cl` [Example 7.21] it is 45 nM.
Take `COC[C@@H]1CCCN1c1ncc(F)c(N2CC[C@@H](Oc3ccc([C@H](C)NC(C)=O)cc3)C2)n1` [Example 8.262]: 129 nM corresponded to half-maximal inhibition (IC50).
With `CC(=O)N[C@@H](C)c1ccc(O[C@@H]2CCN(c3nc(N4CCCC4)ncc3Br)C2)cc1` [Example 8.59] the figure was 425 nM.
`COCCCN(C)c1ncc(Cl)c(N2CC[C@@H](Oc3ccc([C@H](C)NC(C)=O)cc3)C2)n1` [Example 8.168] returned an IC50 of 173 nM.
With `CC(=O)N[C@@H](C)c1ccc(O[C@@H]2CCN(c3ncnc(OCC(C)C)c3F)C2)cc1` [Example 7.28] the figure was 69 nM; with `CC(=O)N[C@@H](C)c1ccc(O[C@@H]2CCN(c3ncnc(N(C)C4CCCC4)c3F)C2)cc1` [Example 8.125], 90 nM; with `C[C@H](NC(=O)N(C)C)c1ccc(OC2CCN(c3ncnc(OCC(C)(C)O)c3F)C2)cc1` (stereo partly shown) [Example 3.15], 278 nM.
The figure for `CC(=O)N[C@@H](C)c1ccc(O[C@@H]2CCN(c3ncnc(N(C)CC4CC4)c3F)C2)cc1` [Example 8.92] is 100 nM; for `C[C@H](NC(=O)N(C)C)c1ccc(OC2CCN(c3ncnc(OCC4CC4)c3F)C2)cc1` (stereo partly shown) [Example 3.10] it is 45 nM; for `COC(=O)N[C@@H](C)c1ccc(OC2CCN(c3ccnc(N4CCOCC4)n3)C2)cc1` (stereo partly shown) [Example 4.2] it is 244 nM.
As to `CC(=O)N[C@@H](C)c1ccc(O[C@@H]2CCN(c3ncnc(N4CCc5nocc5C4)c3F)C2)cc1` [Example 8.212], it took 998 nM to reach half-maximal inhibition (IC50).
With `CCN(C)c1nccc(N2CCC(Oc3ccc([C@H](C)NC(=O)OC)cc3)C2)n1` (stereo partly shown) [Example 4.4] the figure was 75 nM.
With `CCN(C)c1nccc(N2CCC(Oc3ccc([C@H](C)NC(=O)C4CC4)cc3)C2)n1` (stereo partly shown) [Example 2.14] the figure was 63 nM; with `CC(=O)N[C@@H](C)c1ccc(O[C@@H]2CCN(c3nc(N(C)CC(F)(F)F)ncc3F)C2)cc1` [Example 8.30], 184 nM.
With `CC(=O)N[C@@H](C)c1ccc(O[C@@H]2CCN(c3ncnc(N4CCC(F)(F)CC4)c3F)C2)cc1` [Example 8.251] the figure was 97 nM; with `CCCNc1ncnc(N2CC[C@@H](Oc3ccc([C@H](C)NC(C)=O)cc3)C2)c1Cl` [Example 8.298], 156 nM.
On to `C[C@H](NC(=O)c1cncs1)c1ccc(O[C@@H]2CCN(c3nccc(N4CCOCC4)n3)C2)cc1` [Example 6.14], for which half-maximal inhibition (IC50) was put at 290 nM.
With `CC(=O)N[C@@H](C)c1ccc(O[C@@H]2CCN(c3nc(N(C)C4CCC4)ncc3Cl)C2)cc1` [Example 8.267] the figure was 64 nM; with `CC(=O)N[C@@H](C)c1ccc(O[C@@H]2CCN(c3ccnc(OCC(C)C)n3)C2)cc1` [Example 7.17], 960 nM; with `CCCN(C)c1ncc(Br)c(N2CC[C@@H](Oc3ccc([C@H](C)NC(C)=O)cc3)C2)n1` [Example 8.62], 184 nM.
The figure for `CC(=O)N[C@@H](C)c1ccc(O[C@@H]2CCN(c3nc(N4CCCC4)ncc3Cl)C2)cc1` [Example 8.50] is 157 nM; for `CCCN(C)c1ncnc(N2CC[C@@H](Oc3ccc([C@H](C)NC(C)=O)cc3)C2)c1F` [Example 8.144] it is 104 nM.
Compound `CC(=O)N[C@@H](C)c1ccc(O[C@@H]2CCN(c3ccnc(N4CCOC(C)(C)C4)n3)C2)cc1` [Example 8.89] gave an IC50 of 293 nM.
The figure for `CC(=O)N[C@@H](C)c1ccc(O[C@@H]2CCN(c3nc(N(C)C4CCOCC4)ncc3F)C2)cc1` [Example 8.290] is 765 nM; for `CC(=O)N[C@@H](C)c1ccc(O[C@@H]2CCN(c3nc(N4C[C@@H]5C[C@H]4CO5)ncc3Cl)C2)cc1` [Example 8.146] it is 984 nM.
Take `CC(=O)N[C@@H](C)c1ccc(O[C@@H]2CCN(c3ncnc(N(C)C[C@H]4CCCO4)c3F)C2)cc1` [Example 8.148]: the concentration for half-maximal inhibition (IC50) was 198 nM.
`CO[C@@H]1CCN(c2ncnc(N3CC[C@@H](Oc4ccc([C@H](C)NC(C)=O)cc4)C3)c2F)C1` [Example 8.234] returned an IC50 of 898 nM.
Regarding `C[C@H](NC(=O)C1CC1)c1ccc(O[C@@H]2CCN(c3nc(N4CCOCC4)ncc3F)C2)cc1` [Example 10.5], 295 nM corresponded to half-maximal inhibition (IC50).
With `CC(=O)N[C@@H](C)c1ccc(O[C@@H]2CCN(c3nc(N4CCC(C)(O)C4)ncc3F)C2)cc1` (stereo partly shown) [Example 8.156] the figure was 153 nM; with `CC(=O)N[C@@H](C)c1ccc(O[C@@H]2CCN(c3nc(N4CCCC4(C)C)ncc3Cl)C2)cc1` [Example 8.152], 215 nM.
With `CCCNc1ncnc(N2CC[C@@H](Oc3ccc([C@H](C)NC(C)=O)cc3)C2)c1OC` [Example 8.301] the figure was 809 nM.
`CC(=O)N[C@@H](C)c1ccc(O[C@@H]2CCN(c3ncnc(N4CC[C@H](C)C4)c3Cl)C2)cc1` [Example 8.310]: the IC50 stood at 52 nM.
The figure for `C[C@H](NC(=O)N(C)C)c1ccc(OC2CCN(c3ccnc(N4CCOCC4)n3)C2)cc1` (stereo partly shown) [Example 3.2] is 227 nM; for `C[C@H](NC(=O)N(C)C)c1ccc(OC2CCN(c3ccnc(N(C)CC(F)F)n3)C2)cc1` (stereo partly shown) [Example 3.1] it is 40 nM.
Consider `CC(=O)N[C@@H](C)c1ccc(O[C@@H]2CCN(c3nc(NC4CCCC4)ncc3F)C2)cc1` [Example 8.10], for which the IC50 came out at 190 nM.
With `CC(=O)N[C@@H](C)c1ccc(O[C@@H]2CCN(c3cc(N(C)CC4CC4)ncn3)C2)cc1` [Example 8.2] the figure was 424 nM; with `CC(=O)N[C@@H](C)c1ccc(O[C@@H]2CCN(c3nc(N4CCOCC4)ncc3Cl)C2)cc1` [Example 8.96], 265 nM; with `CC(=O)N[C@@H](C)c1ccc(O[C@@H]2CCN(c3ncnc(OC(C)C)c3Cl)C2)cc1` [Example 7.52], 105 nM.
In the case of `CCCNc1ncnc(N2CC[C@@H](Oc3ccc([C@H](C)NC(=O)c4sc(NC(=O)CC)nc4C)cc3)C2)c1Cl` [Example 8.312], 286 nM corresponded to half-maximal inhibition (IC50).
`CC(=O)N[C@@H](C)c1ccc(O[C@@H]2CCN(c3ccnc(N(C)C[C@@H]4CCCO4)n3)C2)cc1` [Example 8.203] displayed an IC50 of 334 nM.
On to `CC(=O)N[C@@H](C)c1ccc(O[C@@H]2CCN(c3ccnc(N4CC[C@H](F)C4)n3)C2)cc1` [Example 8.230], for which half-maximal inhibition (IC50) required 485 nM.
With `CC(=O)N[C@@H](C)c1ccc(O[C@@H]2CCN(c3ncnc(OC[C@@H]4CC4(F)F)c3F)C2)cc1` [Example 7.48] the figure was 87 nM; with `CC(=O)N[C@@H](C)c1ccc(O[C@@H]2CCN(c3cc(OC4CCC4)ncn3)C2)cc1` [Example 7.4], 373 nM; with `CC(=O)N[C@@H](C)c1ccc(O[C@@H]2CCN(c3nc(N4CC(F)(F)C(F)(F)C4)ncc3Cl)C2)cc1` [Example 8.222], 150 nM.
With `CC(=O)N[C@@H](C)c1ccc(O[C@@H]2CCN(c3ncnc(OCC(F)F)c3Cl)C2)cc1` [Example 7.57] the figure was 109 nM; with `COc1c(N2CC[C@@H](Oc3ccc([C@H](C)NC(C)=O)cc3)C2)ncnc1N1CCC(C)(O)C1` (stereo partly shown) [Example 8.295], 790 nM.
`CC(=O)N[C@@H](C)c1ccc(O[C@@H]2CCN(c3nc(N4CCC[C@H]4C)ncc3F)C2)cc1` [Example 8.283]: the IC50 turned out to be 57 nM.
In turn, `CC(=O)N[C@@H](C)c1ccc(O[C@@H]2CCN(c3nc(N4CCC5(CC5)C4)ncc3Cl)C2)cc1` [Example 8.276] came in with an IC50 of 174 nM.
The compound `C[C@H](NC(=O)c1cnco1)c1ccc(OC2CCN(c3ncnc(OCC4CC4)c3F)C2)cc1` (stereo partly shown) [Example 2.21] came in with an IC50 of 87 nM.
The figure for `Cc1nocc1C(=O)N[C@@H](C)c1ccc(OC2CCN(c3ccnc(N4CCOCC4)n3)C2)cc1` (stereo partly shown) [Example 2.4] is 208 nM.
With `CC(=O)N[C@@H](C)c1ccc(O[C@@H]2CCN(c3nccc(N4CCCC4)n3)C2)cc1` [Example 6.10] the figure was 929 nM; with `[2H]C([2H])([2H])N(c1ncc(F)c(N2CC[C@@H](Oc3ccc([C@H](C)NC(C)=O)cc3)C2)n1)C([2H])([2H])[2H]` [Example 8.65], 80 nM.
